Peptide text beside a SMILES is read from it.
Assays:
[1] = Ionization constant was determined; assay type: physicochemical
[2] = Inhibition of specific brain peptidase
[3] = Inhibition of Cl- dependent binding sites of AP4 receptor labeled with [3H]- glutamic acid

Compound | pKa [1] | IC50 [2] [nM] | Ki [3] [nM]
NC(CN1CC(=O)NC1=O)C(=O)O (centres undefined) | 8.2 | – | –
N[C@@H](Cn1oc(=O)[nH]c1=O)C(=O)O [QUISQUALATE] | 4.2 | 480 | –
CC(=O)NC(CC(=O)O)C(=O)NC(CCC(=O)O)C(=O)O (stereo not drawn) (Ac-Asp-Glu-OH; configuration not given here) | – | – | 420

From ChEMBL document CHEMBL1123994, “Excitatory amino acid neurotransmission” (J Med Chem, 1988)
